What was measured:
[1] = molecular target: T1, 17β-HSD10 (Homo sapiens, UniProt Q99714); test: recombinant 17β-HSD10 enzyme activity assay (primary NADH screen and dose response); format: biochemical; design: made in house; conditions: relative remaining activity, 25 μM compound, six independent measurements ± SEM; read-out: 17β-HSD10 activity in the presence of compound at 25 μM (Primary Screen)
T1 sequence (Q99714 1-261): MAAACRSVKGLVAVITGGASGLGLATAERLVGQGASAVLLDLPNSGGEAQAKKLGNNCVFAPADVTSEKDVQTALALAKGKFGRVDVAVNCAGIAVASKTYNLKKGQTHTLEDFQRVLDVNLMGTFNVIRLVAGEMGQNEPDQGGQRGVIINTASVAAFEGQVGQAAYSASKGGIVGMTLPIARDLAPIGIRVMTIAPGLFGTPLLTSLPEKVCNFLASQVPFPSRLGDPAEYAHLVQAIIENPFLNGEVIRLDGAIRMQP
Description: In order to reduce attrition rates and improve assay reproducibility we have developed a high throughput screening (HTS) pipeline (Figure 3 [19]). In brief, compounds are screened in the recombinant 17β-HSD10 enzyme activity assay (Table 5, Figure 4). Our best previously published compounds have set the threshold of 40% remaining 17β-HSD10 activity as a minimum standard and if compounds can better this threshold, they are further screened using our orthogonal counter assays, dose response assays and kinetic assessment (Table 5). Finally, if passing these criteria with favourable characteristics, the compounds progress into cellular evaluation through cytotoxicity testing and measuring 17β-HSD10 activity within cells (Table 6).
Full results for the primary nicotinamide adenine dinucleotide (NADH) assay screens are shown in Figure 4 including our four best previously published compounds for comparison (Figure 1).
Purification of 17β-HSD10 protein was performed as described in our previous work.
Compound screening, dose response and mechanism of inhibition experiments were performed as described in Hroch et al. 2016, with the exceptions being an alteration in assay buffer (10 mM Tris HCl (pH 7.4), 150 mM NaCl, 1 mM DTT, 0.005% Tween20, 0.01% BSA) and a change in temperature to 25 °C, to improve enzyme stability and assay reliability as compound solubility improved, as outlined in our previous work.

Compound | remaining activity at 25 µM [1] | melting point
COc1ccc2nc(NC(=O)Nc3ccc(O)c(C)c3)sc2c1 [Compound 2, 1-(4-Hydroxy-3-methylphenyl)-3-(6-methoxybenzo[d]thiazol-2-yl)urea] | 52.2 ± 3.67% | 262 to 263 °C
COc1ccc2nc(NC(=O)Nc3ccc(O)c(C(C)(C)C)c3)sc2c1 [Compound 3, 1-(3-(Tert-butyl)-4-hydroxyphenyl)-3-(6-methoxybenzo[d]thiazol-2-yl)urea] | 41 ± 0.45% | 259 to 260 °C
COc1ccc2nc(NC(=O)Nc3ccc(O)c(C#N)c3)sc2c1 [Compound 4, 1-(3-Cyano-4-hydroxyphenyl)-3-(6-methoxybenzo[d]thiazol-2-yl)urea] | 96.5 ± 2.03% | 277 to 279 °C
COc1ccc2nc(NC(=O)Nc3ccc(O)c(N)c3)sc2c1 [Compound 7, 1-(3-Amino-4-hydroxyphenyl)-3-(6-methoxybenzo[d]thiazol-2-yl)urea] | 82.5 ± 2.39% | 180 to 181 °C
COc1ccc2nc(NC(=O)Nc3ccc(O)nc3)sc2c1 [Compound 8, 1-(6-Hydroxypyridin-3-yl)-3-(6-methoxybenzo[d]thiazol-2-yl)urea] | 63.3 ± 3.42% | 272 to 273 °C
COc1ccc2nc(NC(=O)Nc3ccc(N)cc3)sc2c1 [Compound 9, 1-(4-Aminophenyl)-3-(6-methoxybenzo[d]thiazol-2-yl)urea] | 105 ± 3.17% | 304 to 306 °C (dec.)
COc1ccc2nc(NC(=O)Nc3ccc(N)c(Cl)c3)sc2c1 [Compound 10, 1-(4-Amino-3-chlorophenyl)-3-(6-methoxybenzo[d]thiazol-2-yl)urea] | 117 ± 3.94% | 310 to 311 °C (dec.)
COc1ccc2nc(NC(=O)Nc3ccc(CO)c(Cl)c3)sc2c1 [Compound 11, 1-(3-Chloro-4-(hydroxymethyl)phenyl)-3-(6-methoxybenzo[d]thiazol-2-yl)urea] | 110 ± 3.8% | 229 to 230 °C
Oc1ccc(Nc2nc3ccc(Cl)cc3s2)cc1Cl [Compound 23, 2-Chloro-4-((6-chlorobenzo[d]thiazol-2-yl)amino)phenol] | 120 ± 13.5% | 213 to 214.5 °C
COc1ccc2nc(NC(=O)c3ccc(O)c(Cl)c3)sc2c1 [Compound 26] | 105 ± 4.99% | –
COc1ccc2nc(NC(=O)NCc3ccc(O)c(Cl)c3)sc2c1 [Compound 28, 1-(3-Chloro-4-hydroxybenzyl)-3-(6-methoxybenzo[d]thiazol-2-yl)urea] | 101 ± 4.6% | 249 to 251 °C
COc1ccc2nc(NC(=O)NCc3ccc(O)c(O)c3)sc2c1 [Compound 29, 1-(3,4-Dihydroxybenzyl)-3-(6-methoxybenzo[d]thiazol-2-yl)urea] | 63.5 ± 2.58% | 141.5 to 142 °C
COc1ccc2nc(NC(c3ccc(F)cc3)P(=O)(OC)OC)sc2c1 (stereo not drawn) [Compound 34, Dimethyl ((4-fluorophenyl)((6-methoxybenzo[d]thiazol-2-yl)amino)methyl) phosphonate, reference compound] | 95.4 ± 1.16% | –
COc1ccc2nc(NC(c3ccc(O)cc3)P(=O)(OC)OC)sc2c1 (stereo not drawn) [Compound 35, Dimethyl ((4-hydroxyphenyl)((6-methoxybenzo[d]thiazol-2-yl)amino)methyl) phosphonate, reference compound] | 96.6 ± 1.35% | –
COC(=O)c1cc(C(Nc2nc3ccc(OC)cc3s2)P(=O)(OC)OC)ccc1O (stereo not drawn) [Compound 36, Methyl 5-((dimethoxyphosphoryl)((6-methoxybenzo[d]thiazol-2-yl)amino)methyl)-2-hydroxybenzoate, reference compound] | 95.9 ± 2.09% | –
COc1ccc2nc(NC(c3ccc(O)c(Cl)c3)P(=O)(OC)OC)sc2c1 (stereo not drawn) [Compound 37, Dimethyl ((3-chloro-4-hydroxyphenyl)((6-methoxybenzo[d]thiazol-2-yl)amino)methyl) phosphonate] | 97.83 ± 0.88% | 198 to 199 °C
CN(C(=O)Nc1ccc(O)c(Cl)c1)c1nc2ccccc2s1 [Compound 41, 1-(Benzo[d]thiazol-2-yl)-3-(3-chloro-4-hydroxyphenyl)-1-methylurea] | 106 ± 20.9% | 171 to 172 °C
CN(C(=O)Nc1nc2ccccc2s1)c1ccc(O)c(Cl)c1 [Compound 45, 3-(Benzo[d]thiazol-2-yl)-1-(3-chloro-4-hydroxyphenyl)-1-methylurea] | 77.3 ± 1.43% | 139 to 141 °C
COc1ccc2nc(NC(=O)N(C)c3ccc(O)c(Cl)c3)sc2c1 [Compound 46, 1-(3-Chloro-4-hydroxyphenyl)-3-(6-methoxybenzo[d]thiazol-2-yl)-1-methylurea] | 97.8 ± 1.32% | 220 °C (dec.)
CN(C(=O)N(C)c1nc2ccccc2s1)c1ccc(O)c(Cl)c1 [Compound 49, 1-(Benzo[d]thiazol-2-yl)-3-(3-chloro-4-hydroxyphenyl)-1,3-dimethylurea] | 105 ± 2.21% | 227 to 228.5 °C
O=C(Nc1ccc(O)c(Cl)c1)Nc1nc2c(s1)CCCC2 [Compound 71, 1-(3-Chloro-4-hydroxyphenyl)-3-(4,5,6,7-tetrahydrobenzo[d]thiazol-2-yl)urea] | 55.8 ± 1.54% | 258 to 260 °C
O=C(Nc1ccc(O)c(Cl)c1)NC1Cc2ccccc2C1 [Compound 72, 1-(3-Chloro-4-hydroxyphenyl)-3-(2,3-dihydro-1H-inden-2-yl)urea] | 79.2 ± 2.56% | 203 to 205 °C
O=C(Nc1ccc(O)c(Cl)c1)Nc1nc(-c2ccc(Cl)cc2)cs1 [Compound 73, 1-(3-Chloro-4-hydroxyphenyl)-3-(4-(4-chlorophenyl)thiazol-2-yl)urea] | 102 ± 3.65% | 206 to 208 °C
O=C(Nc1ccc(O)c(Cl)c1)Nc1nccs1 [Compound 74, 1-(3-Chloro-4-hydroxyphenyl)-3-(thiazol-2-yl)urea] | 74.5 ± 0.63% | 220 to 222 °C
COc1ccc(CCNC(=O)Nc2ccc(O)c(Cl)c2)cc1 [Compound 75, 1-(3-Chloro-4-hydroxyphenyl)-3-(4-methoxyphenethyl)urea] | 73.3 ± 4.33% | 161.5 to 163.5 °C
O=C(Nc1ccc(O)c(Cl)c1)Nc1ccc2ncsc2c1 [Compound 76, 1-(Benzo[d]thiazol-6-yl)-3-(3-chloro-4-hydroxyphenyl)urea] | 43.8 ± 0.77% | 224 to 226 °C

— article PMC6696238, “Novel Benzothiazole-Based Ureas as 17β-HSD10 Inhibitors, A Potential Alzheimer’s Disease Treatment” (Molecules, 2019)
